The nature of series [1]: Diffusivity by Pulsed Field Gradient Nuclear Magnetic Resonance. The class given is physicochemical. The conditions noted are these: 37° C. As to the method: Goserelin acetate and vitamin B12 were incorporated into cylindrical polymer matrices as described in Example 2, but using only PEGD 24000 g/mol. Goserelin acetate is a peptide having the sequence Pyr-His-Trp-Ser-Tyr-D-Ser(tBu)-Leu-Arg-Pro-Azagly-NH2 acetate salt. Its molecular weight is 1269 g/mol and it has a water solubility of 20 mg/mL at 25° C. […] The diffusivities of these two compounds was determined at 37° C. using Pulsed Field Gradient Nuclear Magnetic Resonance. The measured diffusivities were 2.8±0.1 and 2.6±0.1 (10^−6) cm^2/s for vitamin B12 and goserelin, respectively. These diffusivities are essentially the same. In vitro release experiments on these cylinders were performed as described in Example 2. […] As the diffusivities of the two compounds are very similar, and degradation of the polymer occurs slowly, release cannot be controlled by either diffusion or polymer degradation. The higher release rate must therefore be a result of the higher aqueous solubility of the goserelin acetate. Thus, release is driven by the dissolution rate of the compound in the aqueous regions of the polymer matrix.

The conditions of series [2]: cited from earlier work.
A short description of series [3]: Effect of cross-linking UV irradiation on vitamin B12 absorbance. The conditions noted are these: 10 mW/cm^2 long-wave UV 5 minutes, with photo-initiator, in ethyl acetate or non-acrylated polymer solution. The class given is physicochemical. How it is done: As vitamin B12 absorbs within the UV region, it was important to determine whether the cross-linking conditions affected the vitamin B12. The vitamin B12 was therefore suspended in ethyl acetate in the presence of the photo-initiator, and in a non-acrylated polymer solution also containing the photo-initiator, and subjected to 10 mW/cm^2 long-wave UV irradiation for 5 minutes. The vitamin B12 was then filtered from solution, dried, and dissolved in varying concentrations and their absorbance measured and compared to that of solutions prepared from the as-received vitamin B12.

Series [4] is described as follows: In vitro release of goserelin acetate and vitamin B12 from ASCP 2700 / PEGD 24000 cylinders. The class given is physicochemical. The conditions noted are these: 90% ASCP 2700 and 10% PEGD 24000 cylinders, loading 1 w/w %. The source says: Acrylated star-poly(ε-caprolactone-co-D,L-lactide) (ASCP) of molecular weight 2700 g/mol was co-dissolved in tetrahydrofuran with poly(ethylene glycol)diacrylate (PEGD) of molecular weight 4000 g/mol or 24000 g/mol. The total polymer concentration was 1 g/mL THF. The mass ratio of PEGD:ASCP was 1:9 (10% PEGD). In this solution was suspended vitamin B12 particles that had been ground and sieved to less than 100 μm in diameter. The total mass of vitamin B12 to polymer was 1:99 (1% vitamin B12). 1.5 w/w % of 2,2-dimethoxy-2-phenyl-acetophenone (DMPA) photoinitiator was also included. The suspension was injected into a 1.8 mm diameter glass tube to a length of 34 cm and sealed with parafilm. […] The concentration of vitamin B12 in the release samples was measured with a Spectromax microplate spectrophotometer. 0.250 mL of vitamin B12 sample per well was added into a 96 well microplate, and the absorbance of these samples was read at 381 nm. […]
Goserelin acetate and vitamin B12 were incorporated into cylindrical polymer matrices as described in Example 2, but using only PEGD 24000 g/mol. […] The diffusivities of these two compounds was determined at 37° C. using Pulsed Field Gradient Nuclear Magnetic Resonance. The measured diffusivities were 2.8±0.1 and 2.6±0.1 (10^−6) cm^2/s for vitamin B12 and goserelin, respectively. […]

This is an account of results in patent US20060233857A1, “Degradable elastomeric network” (priority 2005, published 2006).

Counter-ions that a name gives are not always drawn. Like-named read-outs stand apart in the source and are kept apart here.

Take vitamin B12: the diffusivity in series [1] was 2.8±0.1 (10^−6) cm^2/s. Further, the water solubility in series [2] (temperature not given) is listed as 12.5 mg/mL. Besides, the “change in the absorbance of the vitamin B12 due to cross-linking conditions” value in series [3] is “no significant change”.
In the case of `CC(C)C[C@H](NC(=O)[C@@H](COC(C)(C)C)NC(=O)[C@H](Cc1ccc(O)cc1)NC(=O)[C@H](CO)NC(=O)[C@H](Cc1c[nH]c2ccccc12)NC(=O)[C@H](Cc1cnc[nH]1)NC(=O)[C@@H]1CCC(=O)N1)C(=O)N[C@@H](CCCNC(=N)N)C(=O)N1CCC[C@H]1C(=O)NNC(N)=O` [Goserelin acetate, Pyr-His-Trp-Ser-Tyr-D-Ser(tBu)-Leu-Arg-Pro-Azagly-NH2 acetate salt], the “release rate compared with vitamin B12 (in words)” value in series [4] was “appreciably faster rate”. In addition, the diffusivity in series [1] is reported as 2.6±0.1 (10^−6) cm^2/s. In addition, the water solubility in series [2] (25° C.) is reported as 20 mg/mL.
